Laboratory results reported in patent US6723753B2, “Substituted n-benzyl-n-phenyl aminoalcohol compounds useful for inhibiting cholesteryl ester transfer protein activity” (Pharmacia Corporation, priority 2002, dated 2004).

Legend:
[1] = target: T1, CETP (Homo sapiens, UniProt P11597); test: Assay of CETP Inhibition using Purified Components (Reconstituted Buffer Assay); format: biochemical; design: made in house; host or cells: CHO cells (serum-free conditioned medium); details: Inhibition of CETP activity in reconstituted buffer assay; transfer of [3H]CE from HDL to LDL; read-out: IC50
T1 sequence (P11597 18-493): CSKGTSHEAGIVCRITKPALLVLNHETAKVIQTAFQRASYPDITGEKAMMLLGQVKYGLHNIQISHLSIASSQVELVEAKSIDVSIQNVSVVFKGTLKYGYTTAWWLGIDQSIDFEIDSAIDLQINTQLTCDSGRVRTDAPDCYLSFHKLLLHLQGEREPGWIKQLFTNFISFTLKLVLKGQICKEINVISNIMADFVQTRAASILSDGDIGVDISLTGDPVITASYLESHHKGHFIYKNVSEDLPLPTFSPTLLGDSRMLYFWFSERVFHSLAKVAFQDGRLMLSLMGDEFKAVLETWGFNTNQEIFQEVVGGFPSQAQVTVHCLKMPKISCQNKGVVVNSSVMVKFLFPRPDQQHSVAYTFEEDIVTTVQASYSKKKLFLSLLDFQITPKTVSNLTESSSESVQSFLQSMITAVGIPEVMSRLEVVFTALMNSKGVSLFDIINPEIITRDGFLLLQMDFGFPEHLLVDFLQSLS
In short: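 Purified human recombinant CETP from transfected CHO cells was incubated with [^3H]CE-labeled HDL donor and LDL acceptor in Tris pH 7.4/NaCl/EDTA/1% BSA buffer for 2 h at 37 °C. LDL was then precipitated with dextran sulfate/MgCl2, filtered, and counted by liquid scintillation to give IC50 for CE transfer.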

[2] = target: T1, CETP; test: Assay of CETP Inhibition in Human Plasma; format: biochemical; design: Blood was obtained from healthy volunteers, recruited from the personnel of Monsanto Company; from tissue; host or cells: human EDTA plasma pool from healthy volunteers; details: Inhibition of CETP activity in human plasma assay; transfer of [3H]CE from HDL to VLDL and LDL; read-out: IC50
Description: Assay of CETP Inhibition in Human Plasma
Blood was obtained from healthy volunteers, recruited from the personnel of Monsanto Company, Saint Louis, Mo. Blood was collected in tubes containing EDTA (EDTA plasma pool). The EDTA human plasma pool, previously stored at −20° C., was thawed at room temperature and centrifuged for 5 minutes to remove any particulate matter. […] Equal volumes (396 μL) of the plasma containing the [^3H]CE-HDL were added by pipette into micro tubes (Titertube®, Bio-Rad laboratories, Hercules, Calif.). Inhibitor compounds, dissolved as 20-50 mM stock solutions in DMSO, were serially diluted in DMSO (or an alternative solvent in some cases, such as dimethylformamide or ethanol). Four μL of each of the serial dilutions of inhibitor compounds or DMSO alone were then added to each of the tubes containing plasma (396 μL). After mixing, triplicate aliquots (100 μL) from each plasma tube were then transferred to wells of 96-well round-bottomed polystyrene microtiter plates (Corning, Corning, N.Y.). Plates were sealed with plastic film and incubated at 37° C. for 4 hours. “Test” samples contained plasma with dilutions of inhibitor compounds. “Control” samples contained plasma with DMSO diluted to the same concentration as the test samples, but without inhibitor. “Blank” samples were prepared as “control” samples, but were left in the micro tubes at 4° C. for the 4 hour incubation and were then added to the microtiter wells at the end of the incubation period. VDL and LDL were precipitated by the addition of 10 μL of precipitating reagent (1% (w/v) dextran sulfate (Dextralip50)/0.5 M magnesium chloride, pH 7.4) to all wells. The wells were mixed on a plate mixer and then incubated at ambient temperature for 10 min. The plates were then centrifuged at 1000× g for 30 min at 10° C. The supernatants (50 μL) from each well were then transferred to Picoplate™ 96 plate wells (Packard, Meriden, Conn.) containing Microscint™-40 (Packard, Meriden, Conn.). The plates were heat-sealed (TopSeal™-P, Packard, Meriden, Conn.) according to the manufacturer's directions and mixed for 30 min. Radioactivity was measured on a microplate scintillation counter (TopCount, Packard, Meriden, Conn.). The maximum percentage transfer in the control wells (% transfer) was determined using the following equation: [formula]
The percentage of transfer relative to the control (% control) was determined in the wells containing inhibitor compounds was determined as follows: [formula]
IC50 values were then calculated from plots of % control versus concentration of inhibitor compound.

Row | IC50 [1] [nM] | IC50 [2] [nM] | SMILES
1 | 560 | 25000 | OC(CN(Cc1cccc(OC(F)(F)C(F)F)c1)c1cccc(OCc2ccc(F)cc2)c1)C(F)(F)F (stereo not drawn) [Example 391]
2 | 820 | 5000 | OC(CN(Cc1cccc(OC(F)(F)C(F)F)c1)c1cccc(OCc2cccc(Cl)c2F)c1)C(F)(F)F (stereo not drawn) [Example 393]
3 | 1100 | 10000 | OC(CN(Cc1cccc(OC(F)(F)C(F)F)c1)c1cccc(OCc2ccc(F)cc2F)c1)C(F)(F)F (stereo not drawn) [Example 395]
4 | 810 | 10000 | OC(CN(Cc1cccc(OC(F)(F)C(F)F)c1)c1cccc(OCc2cc(F)ccc2F)c1)C(F)(F)F (stereo not drawn) [Example 397]
5 | 350 | 3400 | OC(CN(Cc1cccc(OC(F)(F)C(F)F)c1)c1cccc(OCc2cccc(F)c2F)c1)C(F)(F)F (stereo not drawn) [Example 399]
6 | 330 | 2900 | Cc1cccc(COc2cccc(N(Cc3cccc(OC(F)(F)C(F)F)c3)CC(O)C(F)(F)F)c2)c1 (stereo not drawn) [Example 402]
7 | 600 | 6200 | OC(CN(Cc1cccc(OC(F)(F)C(F)F)c1)c1cccc(OCc2cccc(I)c2)c1)C(F)(F)F (stereo not drawn) [Example 405]
8 | 770 | 24000 | O=[N+]([O-])c1c(F)cccc1Oc1cccc(N(Cc2cccc(OC(F)(F)C(F)F)c2)CC(O)C(F)(F)F)c1 (stereo not drawn) [Example 440]
9 | 9800 | > 50000 | Cc1ccc([N+](=O)[O-])cc1Oc1cccc(N(Cc2cccc(OC(F)(F)C(F)F)c2)CC(O)C(F)(F)F)c1 (stereo not drawn) [Example 447]
10 | 750 | 18000 | OC(CN(Cc1cccc(OC(F)(F)C(F)F)c1)c1cccc(-c2ccc(F)c(Cl)c2)c1)C(F)(F)F (stereo not drawn) [Example 554]

Second part, the compound before the results:

Row | SMILES | IC50 [1] [nM] | IC50 [2] [nM]
11 | OC(CN(Cc1cccc(OC(F)(F)C(F)F)c1)c1cccc(OCc2ccc(C(F)(F)F)cc2C(F)(F)F)c1)C(F)(F)F (stereo not drawn) [Example 396] | 860 | 10000
12 | OC(CN(Cc1cccc(OC(F)(F)C(F)F)c1)c1cccc(OCc2cccc(C(F)(F)F)c2F)c1)C(F)(F)F (stereo not drawn) [Example 400] | 210 | 6300
13 | OC(CN(Cc1cccc(OC(F)(F)C(F)F)c1)c1cccc(OCc2cccc(Br)c2)c1)C(F)(F)F (stereo not drawn) [Example 401] | 180 | 4200
14 | CC(Oc1cccc(N(Cc2cccc(OC(F)(F)C(F)F)c2)CC(O)C(F)(F)F)c1)c1ccccc1 (stereo not drawn) [Example 429] | 440 | 4400
15 | O=[N+]([O-])c1ccccc1Oc1cccc(N(Cc2cccc(OC(F)(F)C(F)F)c2)CC(O)C(F)(F)F)c1 (stereo not drawn) [Example 436, 3-[[3-(2-nitrophenoxy)phenyl][[3-(1,1,2,2-tetrafluoroethoxy)phenyl]-methyl]amino]-1,1,1-trifluoro-2-propanol] | 420 | 14000
16 | O=[N+]([O-])c1cc(Br)ccc1Oc1cccc(N(Cc2cccc(OC(F)(F)C(F)F)c2)CC(O)C(F)(F)F)c1 (stereo not drawn) [Example 439] | 1000 | 13000
17 | CC(C)Sc1cccc(N(Cc2cccc(OC(F)(F)C(F)F)c2)CC(O)C(F)(F)F)c1 (stereo not drawn) [Example 473, 3-[[3-[(1-methylethyl)thio]phenyl][[3-(1,1,2,2-tetrafluoroethoxy)phenyl]-methyl]amino]-1,1,1-trifluoro-2-propanol] | 370 | 16000
18 | O=[N+]([O-])c1ccc(Sc2cccc(N(Cc3cccc(OC(F)(F)C(F)F)c3)CC(O)C(F)(F)F)c2)cc1 (stereo not drawn) [Example 475] | 640 | 37000
19 | CC(C)Oc1cccc(N(Cc2cccc(OC(F)(F)C(F)F)c2)CC(O)C(F)(F)F)c1 (stereo not drawn) [Example 489] | 330 | 8800
20 | COC(=O)C=CCOc1cccc(N(Cc2cccc(OC(F)(F)C(F)F)c2)CC(O)C(F)(F)F)c1 (stereo not drawn) [Example 499] | 830 | 34000
21 | OC(CN(Cc1cccc(OC(F)(F)C(F)F)c1)c1cccc(-c2cccc(C(F)(F)F)c2)c1)C(F)(F)F (stereo not drawn) [Example 550, 1,1,1-trifluoro-3-[[[3-(1,1,2,2-tetrafluoroethoxy)phenyl]methyl][[3′-(trifluoromethyl)1,1′-biphenyl]-3-yl]amino]-2-propanol] | 500 | 30000
